Assay: xn = mol fraction of the nth substance listed
Conditions: 100 kPa

C[P+](c1ccccc1)(c1ccccc1)c1ccccc1.[Br-] + OCCO
viscosity [mPa·s]
Conditions	293.15 K	298.15 K	303.15 K	308.15 K	313.15 K	318.15 K	323.15 K
x1 = 0.1	45.5	–	27.4	22.37	–	15.1	12.6
x1 = 0.13	56.5	43.3	33.8	27.1	21.86	18.05	14.94
x1 = 0.17	74.7	55.7	43.5	34.5	27.3	21.01	17.81
x1 = 0.2	100.6	74.5	56.2	43.3	34	27.2	21.91
x1 = 0.25	148.7	106.7	78.9	60	46.4	36.4	29
x1 = 0.33	225	158	–	85.5	–	50.5	39.6

Reference: a compilation of properties of binary mixtures (doi:10.1007/s10953-022-01241-4)
